Source: article PMC8474119, “Discovery and SAR Evolution of Pyrazole Azabicyclo[3.2.1]octane Sulfonamides as a Novel Class of Non-Covalent N-Acylethanolamine-Hydrolyzing Acid Amidase (NAAA) Inhibitors for Oral Administration” (Journal of Medicinal Chemistry, 2021)

Legend:
[1] = Aqueous kinetic solubility assay; type: physicochemical; details: PBS buffer, pH 7.4, n = 3
Protocol: The aqueous kinetic solubility was determined from a 10 mM DMSO stock solution of test compound (39 or 50) in PBS buffer at pH 7.4. The study was performed by incubating an aliquot of 10 mM DMSO stock solution in PBS (pH 7.4) to a target concentration of 250 μM (2.5% DMSO). The incubation was carried out under shaking at 25 °C for 24 h, followed by centrifugation at 21,100g for 30 min. The supernatant was further diluted (4:1) with CH3CN, and the dissolved test compound was quantified by UV at 215 nm on a Waters ACQUITY UPLC-MS system consisting of a single quadrupole detector (SQD) mass spectrometer equipped with an electrospray ionization interface and a photodiode array detector (PDA) from Waters Inc. (Milford, MA, USA). Electrospray ionization in positive mode was used in the mass scan range 100–500 Da. The PDA range was 210–400 nm. The analyses were run on an ACQUITY UPLC BEH C18 column (50 × 2.1 mm ID, particle size 1.7 μm) with a VanGuard BEH C18 precolumn (5 × 2.1 mm ID, particle size 1.7 μm), using 10 mM NH4OAc in H2O at pH 5 adjusted with AcOH (A) and 10 mM NH4OAc in CN–H2O (95:5) at pH 5 (B) as the mobile phase.

[2] = Liver microsomal stability assay (NADPH), mouse; type: in vitro ADME; details: for half-life at 4.6 μM: male, CD1, pH 7.5, mouse liver microsomes, read-out: LM_NADPH t1/2; for % compound remaining at last time-point, LM_NADPH: mouse liver microsomes, 4.6 μM, 60 min
Protocol: (§1) Pooled CD1 mouse (M1000, male), IGS Sprague-Dawley rat (R1000, male), and human (H1000, male) liver microsomes were purchased from SEKISUI XenoTech. 10 mM DMSO stock solution of the test compound (39 or 50) was preincubated at 37 °C for 15 min with mouse, rat, or human liver microsomes in 0.1 M Tris-HCl buffer (pH 7.5) with 10% DMSO. The final concentration was 4.6 μM. After preincubation, the cofactor (NADPH) was added to the incubation mixture, and the incubation was continued at 37 °C for 1 h. At each time point (0, 5, 15, 30, and 60 min), 30 μL of incubation mixture was diluted with 200 μL cold CH3CN spiked with 200 nM of an appropriate internal standard, followed by centrifugation at 3.270g for 15 min. The supernatant was further diluted with H2O (1:1) for analysis. A reference incubation mixture of each specie (microsomes without cofactors) was prepared for each test compound and analyzed at t = 0 and 60 min in order to verify the compound stability in the matrix. The two time points were diluted as for the time points of the incubation mixture above. The supernatants were analyzed by LC–MS/MS on a Waters ACQUITY UPLC-MS TQD system consisting of a triple quadrupole detector (TQD) mass spectrometer equipped with an electrospray ionization interface and a photodiode array eλ detector (PDA) from Waters Inc. (Milford, MA, USA). Electrospray ionization was applied in positive mode. Compound-dependent parameters as MRM transitions and collision energy were developed for each compound. The analyses were run on an ACQUITY UPLC BEH C18 (50 × 2.1 mm ID, particle size 1.7 μm) with a VanGuard BEH C18 precolumn (5 × 2.1 mm ID, particle size 1.7 μm) at 40 °C, using H2O + 0.1% HCOOH (A) and CH3CN + 0.1% HCOOH (B) as the mobile phase. The percentage of test compound remaining at each time point relative to t = 0 was calculated by the response factor on the basis of the internal standard peak area. The percentage of test compound versus time was plotted and fitted by GraphPad Prism (GraphPad Software, Version 5 for Windows, CA, USA, www.graphpad.com) to estimate the compound’s half-life (t1/2), which was reported as mean value along with the standard deviation (n = 3).

[3] = Liver microsomal stability assay (NADPH), human; type: in vitro ADME; details: for % compound remaining at last time-point, LM_NADPH: human liver microsomes, 4.6 μM, 60 min; for half-life at 4.6 μM: male, pH 7.5, human liver microsomes, read-out: LM_NADPH t1/2
Protocol: as §1

[4] = Plasma stability assay, rat plasma; type: in vitro ADME; details: for % compound remaining at last time-point, plasma: 2.0 μM, 120 min; for half-life at 2 μM: n ≥ 3, read-out: plasma t1/2
Protocol: 10 mM DMSO stock solution of test compound (39 or 50) was diluted 50-fold with DMSO/H2O (1:1) and incubated at 37 °C for 2 h with mouse or rat plasma added with 5% DMSO (preheated at 37 °C for 10 min). The final compound’s concentration was 2.0 μM. At each time point (0, 5, 15, 30, 60, and 120 min), 50 μL of incubation mixture was diluted with 150 μL cold CH3CN spiked with 200 nM of warfarin, as the internal standard, followed by centrifugation at 3.270g for 20 min. The supernatant was further diluted with H2O (1:1) and analyzed by LC–MS/MS on a Waters ACQUITY UPLC-MS TQD system consisting of a triple quadrupole detector (TQD) mass spectrometer equipped with an electrospray ionization interface and a photodiode array eλ detector (PDA) from Waters Inc. (Milford, MA, USA). Electrospray ionization was applied in positive mode. Compound-dependent parameters as MRM transitions and collision energy were developed for each compound. The analyses were run on an ACQUITY UPLC BEH C18 (50 × 2.1 mm ID, particle size 1.7 μm) with a VanGuard BEH C18 precolumn (5 × 2.1 mm ID, particle size 1.7 μm) at 40 °C, using H2O + 0.1% HCOOH (A) and CH3CN + 0.1% HCOOH (B) as the mobile phase. The percentage of the test compound remaining at each time point relative to t = 0 was calculated by the response factor on the basis of the internal standard peak area. The percentage of test compound versus time was plotted and fitted by GraphPad Prism (GraphPad Software, Version 5 for Windows, CA, USA, www.graphpad.com) to estimate the compound’s half-life (t1/2), which was reported as mean value along with the standard deviation (n = 3).

[5] = Liver microsomal stability assay (NADPH), rat; type: in vitro ADME; details: male, Sprague-Dawley, pH 7.5, rat liver microsomes, read-out: LM_NADPH t1/2
Protocol: Pooled CD1 mouse (M1000, male), IGS Sprague-Dawley rat (R1000, male), and human (H1000, male) liver microsomes were purchased from SEKISUI XenoTech. 10 mM DMSO stock solution of the test compound (39 or 50) was preincubated at 37 °C for 15 min with mouse, rat, or human liver microsomes in 0.1 M Tris-HCl buffer (pH 7.5) with 10% DMSO. The final concentration was 4.6 μM. After preincubation, the cofactor (NADPH) was added to the incubation mixture, and the incubation was continued at 37 °C for 1 h. At each time point (0, 5, 15, 30, and 60 min), 30 μL of incubation mixture was diluted with 200 μL cold CH3CN spiked with 200 nM of an appropriate internal standard, followed by centrifugation at 3.270g for 15 min. […] A reference incubation mixture of each specie (microsomes without cofactors) was prepared for each test compound and analyzed at t = 0 and 60 min in order to verify the compound stability in the matrix. […] The supernatants were analyzed by LC–MS/MS on a Waters ACQUITY UPLC-MS TQD system consisting of a triple quadrupole detector (TQD) mass spectrometer equipped with an electrospray ionization interface and a photodiode array eλ detector (PDA) from Waters Inc. (Milford, MA, USA). […] The percentage of test compound remaining at each time point relative to t = 0 was calculated by the response factor on the basis of the internal standard peak area. […]

SMILES | solubility kinetic at 24 h [1] [µM] | half-life at 4.6 μM [2] [min] | % compound remaining at last time-point, LM_NADPH [2] [%] | % compound remaining at last time-point, LM_NADPH [3] [%] | half-life at 4.6 μM [3] [min] | % compound remaining at last time-point, plasma [4] [%] | half-life at 2 μM [4] [min] | half-life at 1 h, 4.6 µM [5] [min]
CCCCc1ccc(O[C@H]2C[C@H]3CC[C@@H](C2)N3S(=O)(=O)c2c(C)n[nH]c2C)cc1 [Compound 39, (1R,3r,5S)-3-(4-Butylphenoxy)-8-((3,5-dimethyl-1H-pyrazol-4-yl)sulfonyl)-8-azabicyclo[3.2.1]octane] | < 1 | > 60 | 93 | 83 | > 60 | 93 | > 120 | 13
CCOCc1cnc(O[C@H]2C[C@H]3CC[C@@H](C2)N3S(=O)(=O)c2c(C)n[nH]c2C)cn1 [Compound 50, (1R,3r,5S)-8-((3,5-Dimethyl-1H-pyrazol-4-yl)sulfonyl)-3-((5-(ethoxymethyl)pyrazin-2-yl)oxy)-8-azabicyclo[3.2.1]octane] | > 250 | > 60 | 55 | 88 | > 60 | 93 | > 120 | 48
